The values below come from ChEMBL document CHEMBL5620365, “Synthesis and evaluation of piperazinotriazoles. Discovery of a potent and orally bioavailable neurokinin-3 receptor inhibitor” (Eur J Med Chem, 2023).

Series [1] can be described thus: in vivo. The settings on record: Sprague-Dawley, rat, iv, 1 mg/kg.
Series [2] is described as follows: in vivo. Particulars: Sprague-Dawley, rat, po, 5 mg/kg.
Series [3] can be described thus: in vivo. Particulars: Sprague-Dawley, rat, iv, 1 mg/kg. The source holds these as a separate data set.
The nature of series [4]: in vivo. The settings on record: Sprague-Dawley, rat, po, 5 mg/kg. The source holds these as a separate data set.
The nature of series [5]: in vivo. Particulars: Sprague-Dawley, rat, iv, 1 mg/kg. The source holds these as a separate data set.
Series [6] is described as follows: in vitro. The settings on record: rat, liver microsomes.
The nature of series [7]: in vivo. Particulars: Sprague-Dawley, rat, po, 5 mg/kg. This is another data set of the same source.
Series [8] is described as follows: in vivo. Particulars: Sprague-Dawley, rat, brain, po, 5 mg/kg.
Series [9] in a line: in vivo. Particulars: Sprague-Dawley, rat, brain, po, 5 mg/kg. This is another data set of the same source.
The nature of series [10]: in vivo. The settings on record: Sprague-Dawley, rat, po, 5 mg/kg. This is another data set of the same source.
The nature of series [11]: in vivo. Particulars: Sprague-Dawley, rat, iv, 1 mg/kg. This is another data set of the same source.
The nature of series [12]: in vivo. Particulars: Sprague-Dawley, rat, liver, po, 5 mg/kg.
Series [13] in a line: in vitro. The settings on record: human, liver microsomes. (Liver microsomes are a subcellular fraction often used to study metabolism.)
Series [14] can be described thus: in vivo. The settings on record: Sprague-Dawley, rat, iv, 1 mg/kg. This is another data set of the same source.

Turning to `Cc1nsc(-c2nnc3n2CCN(C(=O)c2ccc(F)cc2)[C@@H]3C)n1` [FEZOLINETANT], the half-life at 24 h in “in vivo [1]” is 2.94 h; in “in vivo [4]”, 3.72 h. In addition, in “in vivo [2]”, the Tmax at 24 h worked out at 1.83 h. In the series “in vivo [3]”, the Vd at 24 h came to 0.751 L/kg. In addition, the clearance at 24 h in “in vivo [5]” was 0.176 L/h/kg. Further, the CLint scaled at 0.25 h in the series “in vitro [6]” is less than 0.408 L/h/kg; in “in vitro [13]”, less than 0.81 L/h/kg. In addition, the area under the curve AUC(0-t) at 24 h in “in vivo [7]” came to 31.6 µg·h/mL; in “in vivo [11]” it was 5.59 µg·h/mL. In “in vivo [8]”, this compound came in with a concentration at 10 h of 297 ng/g. Besides, the concentration at 1 h stood at 1020 ng/g in the series “in vivo [9]” and 12100 ng/g in the series “in vivo [12]”. Moreover, the results for the peak concentration (Cmax) at 24 h in “in vivo [10]” and in “in vivo [14]” were 3.63 µg/mL and 1.77 µg/mL, respectively.

As usually defined, the half-life is how long it takes for the measured level to halve. A high value points to slow loss. One may read the Tmax as the time at which the peak concentration occurs. As a reminder, the Vd is the apparent volume that relates the amount in the body to the concentration in plasma or blood. The low end stands for confinement near the circulation, the high end for extensive tissue distribution. Broadly, the clearance is the rate of elimination divided by the concentration. By CLint scaled is commonly meant a measure of how fast metabolising enzymes remove a compound, apart from limits set by blood flow. A lower CLint scaled goes with slow turnover. A word on the AUC(0-t): it is exposure summed from dosing to a finite time, without extrapolation to infinity. A high value points to high exposure. Broadly, the Cmax is the maximum level reached in the sampled fluid or tissue.
